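Following 48 hours of exposure in 96-well plates, responses at five concentrations were used to interpolate endpoints linearly. Here, GI50 denotes the concentration required for 50% inhibition of growth.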 Activity calls are given as the source filed them. Cut-off read from the data, not from the text of the source: active = GI50 up to about 1.1 µM and inactive = higher.
Tests used:
Test in all cases: growth of human tumour cells (NCI), 48 h
[1] = tested on: 786-0
[2] = tested on: A549
[3] = tested on: BT-549
[4] = tested on: CAKI-1
[5] = tested on: CCRF-CEM
[6] = tested on: HOP-92
[7] = tested on: Hs-578T
[8] = tested on: IGROV-1
[9] = tested on: KM12
[10] = tested on: NCI-H226
[11] = tested on: NCI-H23
[12] = tested on: NCI/ADR-RES
[13] = tested on: OVCAR-4
[14] = tested on: RPMI-8226
[15] = tested on: SF-268
[16] = tested on: SNB-75
[17] = tested on: SR
[18] = tested on: UACC-257
[19] = tested on: UACC-62
[20] = tested on: UO-31

Compound	GI50 [1]	GI50 [2]	GI50 [3]	GI50 [4]	GI50 [5]	GI50 [6]	GI50 [7]	GI50 [8]	GI50 [9]	GI50 [10]	GI50 [11]	GI50 [12]	GI50 [13]	GI50 [14]	GI50 [15]	GI50 [16]	GI50 [17]	GI50 [18]	GI50 [19]	GI50 [20]
C[N+]1(CCN=C=NC2CCCCC2)CCOCC1	> 100 µM (inactive)	> 100 µM (inactive)	> 100 µM (inactive)	> 100 µM (inactive)	> 100 µM (inactive)	> 100 µM (inactive)	> 100 µM (inactive)	> 100 µM (inactive)	> 100 µM (inactive)	> 100 µM (inactive)	> 100 µM (inactive)	> 100 µM (inactive)	> 100 µM (inactive)	> 100 µM (inactive)	> 100 µM (inactive)	> 100 µM (inactive)	> 100 µM (inactive)	> 100 µM (inactive)	> 100 µM (inactive)	> 100 µM (inactive)
COC(=O)CCC(C)[C@H]1CCC2C3CC[C@@H]4CC5(CC[C@]4(C)C3C[C@H](OC(C)=O)[C@@]21C)OOC1(CCCCC1)OO5 (stereo not given in full)	12.1 µM (inactive)	9.77 µM (inactive)	27.6 µM (inactive)	4.03 µM (inactive)	5.3 µM (inactive)	46.6 µM (inactive)	13.4 µM (inactive)	2.12 µM (inactive)	8.85 µM (inactive)	> 100 µM (inactive)	9.55 µM (inactive)	81.1 µM (inactive)	4.06 µM (inactive)	1.94 µM (inactive)	19.7 µM (inactive)	55.2 µM (inactive)	3.33 µM (inactive)	4.49 µM (inactive)	> 100 µM (inactive)	2.67 µM (inactive)
Cc1cccc(/C=N/NC(=S)NCc2ccccn2)n1	17.9 µM (inactive)	27.1 µM (inactive)	58.2 µM (inactive)	26.4 µM (inactive)	24.2 µM (inactive)	25.9 µM (inactive)	> 93.5 µM (inactive)	24 µM (inactive)	40.3 µM (inactive)	29.3 µM (inactive)	40.8 µM (inactive)	25.2 µM (inactive)	> 100 µM (inactive)	44.6 µM (inactive)	20 µM (inactive)	17.6 µM (inactive)	38.9 µM (inactive)	41.7 µM (inactive)	17.7 µM (inactive)	14.8 µM (inactive)
O=C1C(N2CCN(CCOCCO)CC2)=C(Cl)C(=O)c2ncccc21	21.4 µM (inactive)	> 10 µM (inactive)	4.89 µM (inactive)	17.3 µM (inactive)	1.92 µM (inactive)	2.62 µM (inactive)	> 10 µM (inactive)	16.9 µM (inactive)	> 10 µM (inactive)	> 10 µM (inactive)	20.3 µM (inactive)	37.4 µM (inactive)	20.3 µM (inactive)	19 µM (inactive)	20.6 µM (inactive)	38.3 µM (inactive)	> 10 µM (inactive)	22 µM (inactive)	21.5 µM (inactive)	17.7 µM (inactive)
C/C=C/C(O)P(=O)(OC)OC (stereo not given)	0.173 µM (active)	0.274 µM (active)	0.594 µM (active)	0.589 µM (active)	0.227 µM (active)	< 0.0385 µM (active)	0.213 µM (active)	0.275 µM (active)	0.278 µM (active)	0.332 µM (active)	0.307 µM (active)	0.473 µM (active)	0.335 µM (active)	0.162 µM (active)	0.263 µM (active)	0.312 µM (active)	0.257 µM (active)	0.256 µM (active)	0.27 µM (active)	0.164 µM (active)
O=c1ssc(Cl)c1Nc1c(Cl)ssc1=O	17.8 µM (inactive)	21.7 µM (inactive)	18.7 µM (inactive)	15.2 µM (inactive)	3.78 µM (inactive)	20 µM (inactive)	36.4 µM (inactive)	18.2 µM (inactive)	17.3 µM (inactive)	28.4 µM (inactive)	19.9 µM (inactive)	27.2 µM (inactive)	18.2 µM (inactive)	9.08 µM (inactive)	23.1 µM (inactive)	25.9 µM (inactive)	3.62 µM (inactive)	16.5 µM (inactive)	> 40.7 µM (inactive)	14.4 µM (inactive)
N#Cc1c(Cl)c2ccccc2n2c1nc1ccccc12	19.7 µM (inactive)	> 100 µM (inactive)	71 µM (inactive)	21.9 µM (inactive)	11.2 µM (inactive)	19.7 µM (inactive)	17.7 µM (inactive)	13.9 µM (inactive)	34.1 µM (inactive)	21.6 µM (inactive)	24.2 µM (inactive)	23.3 µM (inactive)	27.4 µM (inactive)	31.3 µM (inactive)	27.2 µM (inactive)	60.4 µM (inactive)	50 µM (inactive)	42.4 µM (inactive)	43.5 µM (inactive)	16.1 µM (inactive)
